Values quoted from earlier work, collected in publication PMC2096654 (Purinergic Signalling, 2006).

Target: T1, human A3 adenosine receptor (Homo sapiens, UniProt P0DMS8)
T1 sequence (P0DMS8 1-318): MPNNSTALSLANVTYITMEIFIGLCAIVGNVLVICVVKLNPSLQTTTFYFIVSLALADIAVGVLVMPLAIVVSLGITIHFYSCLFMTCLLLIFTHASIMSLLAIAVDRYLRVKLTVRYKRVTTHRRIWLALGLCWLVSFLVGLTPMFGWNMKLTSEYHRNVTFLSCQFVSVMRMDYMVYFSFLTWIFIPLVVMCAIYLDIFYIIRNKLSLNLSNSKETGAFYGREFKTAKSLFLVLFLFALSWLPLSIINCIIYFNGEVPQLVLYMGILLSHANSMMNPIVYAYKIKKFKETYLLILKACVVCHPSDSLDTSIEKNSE
Conditions: reference agonist

## CNC(=O)[C@H]1O[C@@H](n2cnc3c(NCc4cccc(I)c4)nc(Cl)nc32)[C@H](O)[C@@H]1O [Cl-IB-MECA, 2-chloro-N^6-(3-iodobenzyl)-5′methylcarboxamidoadenosine]
  agonist behaviour at A3 receptor: full agonist
